Measurements published in patent publication US20230053540A1, “TREATMENT OF LIVER INJURY” (Massachusetts Institute of Technology, priority 2019, published 2023).

Tested on: hepatocytes
Assay: Seq-Well scRNA-Seq of hepatocytes after APAP overdose (signature scores, DEG vs untreated)
Type: in vivo, mouse
[1] = time point A6 vs untreated (UT)

## CC(=O)Nc1ccc(O)cc1 [APAP, acetaminophen]
[1]
  avg_logFC Mrpl42: −0.2845
  avg_logFC Mrps18c: −0.3663
  avg_logFC Msn: 0.2602
  avg_logFC Mup2: −0.5045
  avg_logFC Mvd: −0.2704
  avg_logFC Myo1b: 0.2624
  avg_logFC Naprt1: −0.3381
  avg_logFC Ndufa1: −0.3645
  avg_logFC Ndufb3: −0.3272
  avg_logFC Ndufb8: −0.3481
  avg_logFC Ndufc1: −0.3444
  avg_logFC Ndufs4: −0.3132
  avg_logFC Ndufs8: −0.3614
  avg_logFC Ndufv3: −0.3971
  avg_logFC Nedd8: −0.3564
  avg_logFC Nedd41: 0.2812
  avg_logFC Net1: 0.3479
  avg_logFC Nop10: −0.2919
  avg_logFC Nrp1: 0.3608
  avg_logFC Nucks1: 0.3558
  avg_logFC Nudt4: 0.2542
  avg_logFC Oaz1: −0.3472
  avg_logFC Otc: −0.299
  avg_logFC Pacsin2: 0.3708
  avg_logFC Palld: 0.3414
  avg_logFC Pank1: −0.3527
  avg_logFC Paqr9: −0.3323
  avg_logFC Pet100: −0.28
  avg_logFC Phc2: 0.312
  avg_logFC Pi4k2a: 0.3536
  avg_logFC Pik3c2a: 0.3249
  avg_logFC Plk3: 0.4166
  avg_logFC Pnkd: −0.2928
  avg_logFC Ppp1r12a: 0.3563
  avg_logFC Prdx5: −0.2821
  avg_logFC Proc: −0.2707
  avg_logFC Psmb1: −0.3585
  avg_logFC Psmb3: −0.3303
  avg_logFC Psmb6: −0.3194
  avg_logFC Ptp4a1: 0.2627
  avg_logFC Ptpn2: 0.2734
  avg_logFC Ptpn12: 0.3342
  avg_logFC Purb: 0.3525
  avg_logFC Pvrl2: −0.2613
  avg_logFC Pxk: 0.2819
  avg_logFC Pxmp2: −0.3671
  avg_logFC Rab6a: 0.3234
  avg_logFC Rbm25: 0.4215
  avg_logFC Rexo2: −0.3263
  avg_logFC Rlim: 0.3102
  avg_logFC Rnaseh2c: −0.3257
  avg_logFC Romo1: −0.3359
  avg_logFC Rps3: −0.3493
  avg_logFC Rps9: −0.3718
  avg_logFC Rps10: −0.3369
  avg_logFC Rps21: −0.3645
  avg_logFC Rsl1d1: 0.3461
  avg_logFC S100a1: −0.3743
  avg_logFC Sar1b: −0.3079
  avg_logFC Sbno1: 0.3671
  avg_logFC Sc4mol: −0.3262
  avg_logFC Scaf11: 0.3598
  avg_logFC Scd1: −0.4661
  avg_logFC Sdhb: −0.2896
  avg_logFC Sdhd: −0.3353
  avg_logFC Sdr9c7: −0.26
  avg_logFC Sdsl: 0.2593
  avg_logFC Sec61b: −0.2903
  avg_logFC Selk: −0.3383
  avg_logFC Sf1: 0.3023
  avg_logFC Sfpq: 0.394
  avg_logFC Sgk1: 0.2843
  avg_logFC Shb: 0.3152
  avg_logFC Sigmar1: −0.3055
  avg_logFC Sirt3: −0.346
  avg_logFC Slc2a2: −0.3123
  avg_logFC Slc10a1: −0.3258
  avg_logFC Slco1a1: −0.3628
  avg_logFC Slco1a4: 0.3137
  avg_logFC Slirp: −0.3085
  avg_logFC Smap2: 0.3489
  avg_logFC Smdt1: −0.3673
  avg_logFC Smg1: 0.335
  avg_logFC Srsf11: 0.4012
  avg_logFC Stbd1: −0.2732
  avg_logFC Stk17b: 0.2911
  avg_logFC Stom: 0.3232
  avg_logFC Sult1d1: −0.3165
  avg_logFC Tbl1xr1: 0.3075
  avg_logFC Tcea3: −0.355
  avg_logFC Tceb2: −0.3207
  avg_logFC Tgm2: 0.3993
  avg_logFC Tgoln1: 0.2657
  avg_logFC Timm8b: −0.3936
  avg_logFC Tjp1: 0.2862
  avg_logFC Tm7sf2: −0.3164
  avg_logFC Tmbim6: −0.2711
  avg_logFC Tmem37: −0.2822
  avg_logFC Tmem86b: −0.2582
  avg_logFC Tmem106b: 0.2802
  avg_logFC Tmem147: −0.2838
  avg_logFC Tmem150a: −0.2535
  avg_logFC Tmem160: −0.339
  avg_logFC Tmem242: −0.2725
  avg_logFC Tmem243: −0.3791
  avg_logFC Tmem258: −0.2769
  avg_logFC Tnks2: 0.3176
  avg_logFC Tob1: −0.3387
  avg_logFC Tpr: 0.4409
  avg_logFC Tsc22d1: −0.2997
  avg_logFC Tspo: −0.3157
  avg_logFC Txn1: −0.3091
  avg_logFC Ubl5: −0.3033
  avg_logFC Ucp2: 0.2612
  avg_logFC Ugt2a3: −0.3075
  avg_logFC Uqcc2: −0.3269
  avg_logFC Wdr43: 0.3438
  avg_logFC Yap1: 0.3281
  avg_logFC Zfp683: −0.4217
  avg_logFC Zyx: 0.2983
  avg_logFC mmu-mir-6236: 0.5206
Time point A24
  Adck3 pct.1: 0.68
  Arhgap5 pct.1: 0.566
  Arhgef12 pct.1: 0.541
  Arl5a pct.1: 0.459
  Atp1a1 pct.1: 0.532
  Atp5e pct.1: 0.688
  Atp5f1 pct.1: 0.8
  Atp6v1f pct.1: 0.244
  Atp11c pct.1: 0.649
  Atp13a3 pct.1: 0.546
  Azin1 pct.1: 0.46
  Bnip3 pct.1: 0.39
  Brd2 pct.1: 0.512
  Bzw1 pct.1: 0.487
  Cald1 pct.1: 0.79
  Caprin1 pct.1: 0.567
  Ces3b pct.1: 0.683
  Copb2 pct.1: 0.595
  Copz1 pct.1: 0.501
  Cox7b pct.1: 0.768
  Cpne3 pct.1: 0.456
  Ctnnb1 pct.1: 0.566
  Cyp4a14 pct.1: 0.245
  Cyp27a1 pct.1: 0.759
  Ddost pct.1: 0.493
  Dennd5b pct.1: 0.476
  Deptor pct.1: 0.583
  Dnajb9 pct.1: 0.373
  Dnajb11 pct.1: 0.557
  Eci1 pct.1: 0.581
  Edem1 pct.1: 0.566
  Ehhadh pct.1: 0.552
  Eif4b pct.1: 0.542
  Ell2 pct.1: 0.552
  Eprs pct.1: 0.587
  Erbb2ip pct.1: 0.482
  Erp44 pct.1: 0.469
  Esd pct.1: 0.67
  Fam120a pct.1: 0.51
  Fasn pct.1: 0.449
  Fcgrt pct.1: 0.461
  Gch1 pct.1: 0.502
  Gm23935 pct.1: 0.919
  Gm24245 pct.1: 0.369
  Gpam pct.1: 0.329
  Grlf1 pct.1: 0.413
  Gstm3 pct.1: 0.293
  H6pd pct.1: 0.675
  Id3 pct.1: 0.278
  Ide pct.1: 0.604
  Iqgap2 pct.1: 0.748
  Ireb2 pct.1: 0.469
  Jak1 pct.1: 0.482
  Lasp1 pct.1: 0.361
  Lgr4 pct.1: 0.399
  Lpin2 pct.1: 0.7
  Macf1 pct.1: 0.349
  Magt1 pct.1: 0.52
  Man2a1 pct.1: 0.675
  Mbnl1 pct.1: 0.428
  Met pct.1: 0.434
  Mt1 pct.1: 0.41
  Mtss1 pct.1: 0.581
  Nadk2 pct.1: 0.539
  Narf pct.1: 0.411
  Ndufa6 pct.1: 0.692
  Ndufb6 pct.1: 0.636
  Ndufc2 pct.1: 0.465
  Nop10 pct.1: 0.227
  Nr1i3 pct.1: 0.237
  Nrp1 pct.1: 0.426
  Osbp19 pct.1: 0.569
  Osbpl1a pct.1: 0.592
  Ostc pct.1: 0.514
  Pik3c2a pct.1: 0.36
  Plin5 pct.1: 0.181
  Prdx4 pct.1: 0.47
  Prdx5 pct.1: 0.731
  Prkaa2 pct.1: 0.451
  Prox1 pct.1: 0.477
  Proz pct.1: 0.622
